This passage reports inhibition results from publication PMC6352943, “Novel pyrazolo[3,4-d]pyrimidines: design, synthesis, anticancer activity, dual EGFR/ErbB2 receptor tyrosine kinases inhibitory activity, effects on cell cycle profile and caspase-3-mediated apoptosis” (Journal of Enzyme Inhibition and Medicinal Chemistry, 2019).

A word on the inhibition: it is the drop in the measured response relative to a control, in per cent.

Common to all, as to test: NCI 60 cell line single dose screen (SRB)
Holding throughout (format): cell-based

One experiment deals with SR. The conditions noted are these: Homo sapiens; SR (leukemia), single dose 10^−5 M, 48 h; read-out: Growth inhibition percentage. The procedure: (§1) Anticancer activity screening of the newly synthesised compounds was measured in vitro utilising 60 different human tumour cell lines provided by US National Cancer Institute according to previously reported standard procedure[27–29] as follows: Cells are inoculated into 96-well microtitre plates in 100 ml. After cell inoculation, the microtitre plates are incubated at 37 °C, 5% CO2, 95% air and 100% relative humidity for 24 h prior to addition of experimental compounds. After 24 h, two plates of each cell line are fixed in situ with TCA, to represent a measurement of the cell population for each cell line at the time of drug addition (Tz). Experimental compounds are solubilised in dimethyl sulphoxide at 400-fold the desired final maximum test concentration and stored frozen prior to use. At the time of compound addition, an aliquot of frozen concentrate is thawed and diluted to twice the desired final maximum test concentration with complete medium containing […] gentamicin. Aliquots of […] of the compounds dilutions are added to the appropriate microtitre wells already containing 100 ml of medium, resulting in the required final compound concentration. Following compound addition, the plates are incubated for an additional 48 h at 37 °C, 5% CO2, 95% air, and 100% relative humidity. For adherent cells, the assay is terminated by the addition of cold trichloroacetic acid (TCA). Cells are fixed in situ by the gentle addition of 50 ml of cold 50% (w/v) TCA (final concentration, 10% TCA) and incubated for 60 min at 4 °C. The supernatant is discarded, and the plates are washed five times with tap water and air-dried. Sulphorhodamine B (SRB) solution (100 ml) at 0.4% (w/v) in 1% acetic acid is added to each well, and plates are incubated for 10 min at room temperature. After staining, unbound dye is removed by washing five times with 1% acetic acid and the plates are air-dried. Bound stain is subsequently solubilised with 10 mM trizma base, and the absorbance is read on an automated plate reader at a wavelength of 515 nm. For suspension cells, the methodology is the same except that the assay is terminated by fixing settled cells at the bottom of the wells by gently adding 50 ml of 80% TCA (final concentration, 16% TCA). Using the absorbance measurements [time zero, (Tz), control growth, (C), and test growth in the presence of compound (Ti)], the percentage growth is calculated for each compound. Percentage growth inhibition is calculated as: [(Ti – Tz)/(C – Tz)] x 100 for concentrations for which Ti >/=Tz. [(Ti – Tz)/Tz] x 100 for concentrations for which Ti < Tz.

The test system of another experiment is MDA-MB-435. The conditions noted are these: Homo sapiens; MDA-MB-435 (melanoma), single dose 10^−5 M, 48 h; read-out: Growth inhibition percentage. The procedure:
as §1

In a further experiment the test system is SF-295. The conditions noted are these: Homo sapiens; SF-295 (CNS cancer), single dose 10^−5 M, 48 h; read-out: Growth inhibition percentage. The procedure:
as §1

The next experiment concerns SW-620. The conditions noted are these: Homo sapiens; SW-620 (colon cancer), single dose 10^−5 M, 48 h; read-out: Growth inhibition percentage. The procedure:
as §1

Another experiment has as its system NCI-H23. The conditions noted are these: Homo sapiens; NCI-H23 (non-small cell lung cancer), single dose 10^−5 M, 48 h; read-out: Growth inhibition percentage. The procedure: as §1
The next experiment concerns SF-268. The conditions noted are these: Homo sapiens; SF-268 (CNS cancer), single dose 10^−5 M, 48 h; read-out: Growth inhibition percentage. The procedure:
as §1

The next experiment concerns HT29. The conditions noted are these: Homo sapiens, HT-29; HT29 (colon cancer), single dose 10^−5 M, 48 h; read-out: Growth inhibition percentage. The procedure: as §1
The next experiment relates to ACHN. As to conditions: Homo sapiens; ACHN (renal cancer), single dose 10^−5 M, 48 h; read-out: Growth inhibition percentage. The procedure:
as §1

For the next experiment, the system named is PC-3. The conditions noted are these: Homo sapiens; PC-3 (prostate cancer), single dose 10^−5 M, 48 h; read-out: Growth inhibition percentage. The procedure:
as §1

The subject of a further experiment is OVCAR-5. The conditions noted are these: Homo sapiens; OVCAR-5 (ovarian cancer), single dose 10^−5 M, 48 h; read-out: Growth inhibition percentage. The procedure: as §1
For the next experiment, the system named is U251. As to conditions: Homo sapiens, U-251; U251 (CNS cancer), single dose 10^−5 M, 48 h; read-out: Growth inhibition percentage. The procedure:
as §1

The next experiment has as its system SK-MEL-2. As to conditions: Homo sapiens; SK-MEL-2 (melanoma), single dose 10^−5 M, 48 h; read-out: Growth inhibition percentage. The procedure: as §1
In the next experiment the test system is HCC-2998. The conditions noted are these: Homo sapiens; HCC-2998 (colon cancer), single dose 10^−5 M, 48 h; read-out: Growth inhibition percentage. The procedure: as §1
A further experiment has as its system RPMI-8226. The conditions noted are these: Homo sapiens; RPMI-8226 (leukemia), single dose 10^−5 M, 48 h; read-out: Growth inhibition percentage. The procedure:
as §1

In the next experiment the test system is NCI/ADR-RES. The conditions noted are these: Homo sapiens; NCI/ADR-RES (ovarian cancer), single dose 10^−5 M, 48 h; read-out: Growth inhibition percentage. The procedure: as §1
The next experiment relates to UACC-257. As to conditions: Homo sapiens; UACC-257 (melanoma), single dose 10^−5 M, 48 h; read-out: Growth inhibition percentage. The procedure: as §1
The next experiment relates to MOLT-4. As to conditions: Homo sapiens; MOLT-4 (leukemia), single dose 10^−5 M, 48 h; read-out: Growth inhibition percentage. The procedure:
as §1

The test system of a further experiment is KM12. As to conditions: Homo sapiens; KM12 (colon cancer), single dose 10^−5 M, 48 h; read-out: Growth inhibition percentage. The procedure: as §1
For the next experiment, the system named is SK-MEL-5. As to conditions: Homo sapiens; SK-MEL-5 (melanoma), single dose 10^−5 M, 48 h; read-out: Growth inhibition percentage. The procedure: as §1
For another experiment, the system named is RXF 393. The conditions noted are these: Homo sapiens; RXF 393 (renal cancer), single dose 10^−5 M, 48 h; read-out: Growth inhibition percentage. The procedure:
as §1

The test system of the next experiment is NCI-H460. As to conditions: Homo sapiens; NCI-H460 (non-small cell lung cancer), single dose 10^−5 M, 48 h; read-out: Growth inhibition percentage. The procedure:
as §1

Turning to `Cc1nn(-c2ccc(F)cc2)c2ncnc(N3CCN(c4ccc(Cl)cc4)CC3)c12` [Compound 8c, 4–(4-(4-Chlorophenyl)piperazin-1-yl)-1–(4-fluorophenyl)-3-methyl-1H-pyrazolo[3,4-d]pyrimidine], the inhibition at 10 µM with SR was 11%; in the experiment on MDA-MB-435, -14.5%; in the experiment with SF-295, -0.93%; in the experiment on SW-620, -3.16%; in the experiment with NCI-H23, 20.7%; with SF-268, 4.51%. For the same compound, the inhibition at 10 µM in the experiment with HT29 is 5.97%; in the experiment on ACHN, 2.13%; in the experiment on PC-3 it was 11.3%; with OVCAR-5, -2.91%; in the experiment with U251, -0.06%; in the experiment on SK-MEL-2, 9.37%. Also, the inhibition at 10 µM is 3.74% in the experiment on HCC-2998; -8.37% in the experiment on RPMI-8226; 6.62% with NCI/ADR-RES; -0.44% in the experiment with UACC-257; 7.19% with MOLT-4; 2.24% in the experiment with KM12. The inhibition at 10 µM is 5.22% with SK-MEL-5, -16.5% with RXF 393 and -4.35% with NCI-H460.

For `COc1ccc(N2CCN(c3ncnc4c3c(C)nn4-c3ccc(F)cc3)CC2)cc1` [Compound 8d, 1–(4-Fluorophenyl)-4–(4-(4-methoxyphenyl)piperazin-1-yl)-3-methyl-1H-pyrazolo[3,4-d]pyrimidine], the inhibition at 10 µM with SR is 8.97%; in the experiment on MDA-MB-435, -6.1%; with SF-295, -2.4%; with SW-620 it was -0.63%; with NCI-H23, 9.95%; in the experiment with SF-268 it was -2.9%. In addition, the inhibition at 10 µM with HT29 is -1.26%; with ACHN, -0.34%; in the experiment on PC-3 it was 12.5%; in the experiment on OVCAR-5 it was -7.96%; with U251, -2.5%; with SK-MEL-2 it was -1.69%. The inhibition at 10 µM was 3.59% in the experiment with HCC-2998; 6.45% with RPMI-8226; -3.7% with NCI/ADR-RES; -6.35% with UACC-257; 3.49% in the experiment with MOLT-4; 0.4% in the experiment on KM12. The results for the inhibition at 10 µM in the experiment on SK-MEL-5, in the experiment with RXF 393 and with NCI-H460 were -1.01%, -9.45% and -4.87%, respectively.

Consider `COc1cc(C=NNc2ncnc3c2c(C)nn3-c2ccc(F)cc2)ccc1O` [Compound 10b, 1–(4-Fluorophenyl)-4–(2-(4-hydroxy-3-methoxybenzylidene)-hydrazinyl)-3-methyl-1H-pyrazolo[3,4-d]pyrimidine], for which the inhibition at 10 µM was 22.9% in the experiment with SR; 4.56% in the experiment on MDA-MB-435; -5.51% in the experiment on SF-295; -30.9% with SW-620; 9.39% in the experiment on NCI-H23; 29% in the experiment with SF-268. Moreover, the inhibition at 10 µM is 7.7% in the experiment on HT29; 7.34% in the experiment with ACHN; 27% with PC-3; -30.9% in the experiment with OVCAR-5; 5.64% with U251; 10.2% with SK-MEL-2. The inhibition at 10 µM was 0.27% with HCC-2998; 7.52% with RPMI-8226; 4.3% with NCI/ADR-RES; -14.1% in the experiment on UACC-257; 38.3% with MOLT-4; 28.1% in the experiment on KM12. For the same compound, the inhibition at 10 µM with SK-MEL-5 was determined as 43.4%; in the experiment with RXF 393, 4.9%; in the experiment on NCI-H460 it was 11.9%.

For `Cc1nn(-c2ccc(F)cc2)c2ncnc(N3CCOCC3)c12` [Compound 8a, 1–(4-Fluorophenyl)-3-methyl-4-morpholino-1H-pyrazolo[3,4-d]pyrimidine], the inhibition at 10 µM is 1.18% in the experiment with SR; -2.24% in the experiment with MDA-MB-435; 0.61% in the experiment with SF-295; -4.76% with SW-620; 0.28% in the experiment with NCI-H23; -0.79% in the experiment on SF-268. In addition, the inhibition at 10 µM in the experiment on HT29 was 7.56%; with ACHN it was -10.3%; in the experiment with PC-3, 5.06%; with OVCAR-5, -3.95%; with U251 it was -1.7%; in the experiment on SK-MEL-2 it was 1.49%. Besides, the inhibition at 10 µM with HCC-2998 is 2.41%; in the experiment on RPMI-8226, 2%; in the experiment on NCI/ADR-RES, -6.35%; in the experiment on UACC-257, -5.9%; in the experiment with MOLT-4, 5.79%; in the experiment on KM12, 0.04%. The inhibition at 10 µM with SK-MEL-5 is -0.67%; in the experiment on RXF 393, -15.7%; with NCI-H460, -8.23%.

In the case of `Cc1ccc(Nc2ncnc3c2c(C)nn3-c2ccc(F)cc2)cc1` [Compound 7c, 1–(4-Fluorophenyl)-3-methyl-N-(p-tolyl)-1H-pyrazolo[3,4-d]-pyrimidin-4-amine], the inhibition at 10 µM was 6.02% in the experiment with SR; -6.94% in the experiment on MDA-MB-435; -3.83% in the experiment with SF-295; -8.11% in the experiment on SW-620; 4.63% in the experiment with NCI-H23; 1.06% in the experiment with SF-268. Further, the inhibition at 10 µM in the experiment with HT29 is 11.7%; with ACHN, -12.2%; with PC-3 it was 7.23%; with OVCAR-5, -0.5%; with U251 it was 2.65%; in the experiment on SK-MEL-2, 10.9%. Besides, the inhibition at 10 µM in the experiment with HCC-2998 is 1.34%; in the experiment with RPMI-8226, -4.47%; with NCI/ADR-RES, -6.46%; in the experiment on UACC-257 it was -7.62%; in the experiment on MOLT-4 it was 1.83%; in the experiment on KM12, -1.11%. The inhibition at 10 µM with SK-MEL-5 is -3.74%; with RXF 393, -13.7%; in the experiment with NCI-H460, -9.33%.
